Results on 20 compounds are retold here after the supplement of paper PMC8498969.

Molecules are shown by their SMILES.

As a reminder, the IC50 is the midpoint of a concentration-inhibition curve.

The subject of test [1] is HEK293. Kind of test: IC50 for inhibition of ZIKV NS1 production. The procedure: (§1)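 HEK293 cells in 1536-well plates were pre-treated with compound for 1 h, infected with ZIKV (MOI 1) for 24 h, and NS1 antigen (intra- plus extracellular) was measured by TR-FRET. Confirmation used 11-point 1:3 dilutions, and IC50 and maximal inhibition were fitted in GraphPad Prism.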
Test [2] concerns HEK293. Kind of test: cytotoxicity IC50 (ATP content, uninfected cells); higher = less cytotoxic. The conditions noted are these: infection: none.
Test [3] relates to HEK293. Kind of test: maximal inhibition of ZIKV NS1 production (% inhibition); higher = stronger antiviral effect. The method, then: as §1

`O=c1[nH]c2ccc(Cl)cc2c(N[C@@H]2CN3CCC2CC3)c1-c1nc2ccccc2[nH]1`: the IC50 with HEK293 [1] turned out to be 0.41 µM. Besides, the “cytotoxicity IC50” value with HEK293 [2] was 3.3 µM. In the test with HEK293 [3], this compound showed a maximal inhibition of 100.

For the compound `CCCCc1ccc2[nH]c(NC(=O)OC)nc2c1`, the IC50 with HEK293 [1] came to 0.69 µM. In the test with HEK293 [2], the “cytotoxicity IC50” value came out at 3 µM. The maximal inhibition with HEK293 [3] was 80.

Turning to `NS(=O)(=O)c1cccc2c1C(=O)c1cccc(O)c1C2=O`, the IC50 in the test with HEK293 [1] was 2.6 µM. Besides, the “cytotoxicity IC50” value with HEK293 [2] came to 2.8 µM. In addition, the maximal inhibition with HEK293 [3] stood at 98.

Take `CC(C)(O)Cn1c(NC(=O)c2ccc(-c3cn[nH]c3)s2)nc2cc(CN3CCOCC3)ccc21`: in the test on HEK293 [1], the IC50 stood at 8.3 µM. Besides, the “cytotoxicity IC50” value in the test on HEK293 [2] is greater than 100 µM. For the same compound, the maximal inhibition in the test with HEK293 [3] came to 103.

`CC(=O)O[C@@]12CO[C@@H]1C[C@H](O)[C@@]1(C)C(=O)[C@H](O)C3=C(C)[C@@H](OC(=O)[C@H](O)[C@@H](NC(=O)OC(C)(C)C)c4ccccc4)C[C@@](O)([C@@H](OC(=O)c4ccccc4)[C@H]21)C3(C)C` gave an IC50 in the test with HEK293 [1] of 50 µM. The “cytotoxicity IC50” value in the test on HEK293 [2] was greater than 100 µM. Also, the maximal inhibition with HEK293 [3] stood at 66.

As to `CCn1nnc2c(N3CCOCC3)nc(-c3ccc(NC(=O)Nc4ccc(C(=O)N5CCN(C)CC5)cc4)cc3)nc21`, the IC50 in the test on HEK293 [1] worked out at 1.6 µM. Besides, the “cytotoxicity IC50” value in the test with HEK293 [2] was determined as 0.65 µM. Besides, the maximal inhibition with HEK293 [3] was determined as 79.

`O=[N+]([O-])c1ccc2c(c1)S(=O)(=O)C=C2` had an IC50 in the test on HEK293 [1] of 11 µM. In addition, the “cytotoxicity IC50” value with HEK293 [2] was 7.2 µM. In addition, the maximal inhibition in the test on HEK293 [3] is 103.

As to `O=C1NC(=O)/C(=C/c2ccc3nccc(-c4ccncc4)c3c2)S1`, in the test with HEK293 [1], the IC50 worked out at 1.9 µM. Further, the “cytotoxicity IC50” value in the test on HEK293 [2] turned out to be 1.4 µM. Further, in the test with HEK293 [3], the maximal inhibition came out at 82.

In the test with HEK293 [1], `O=[N+]([O-])c1ccc(O)c2ncccc12` registered an IC50 of 6 µM. Moreover, the “cytotoxicity IC50” value in the test with HEK293 [2] came out at 4.7 µM. Besides, the maximal inhibition with HEK293 [3] amounted to 94.

As to `CC[C@@H]1C(=O)N(C)c2cnc(Nc3ccc(C(=O)N[C@H]4CC[C@H](N5CCN(CC6CC6)CC5)CC4)cc3OC)nc2N1C(C)C`, the IC50 in the test with HEK293 [1] is 0.065 µM. Besides, the “cytotoxicity IC50” value in the test with HEK293 [2] is greater than 100 µM. This compound came in with a maximal inhibition in the test on HEK293 [3] of 101.

For `Oc1cccc(-c2nc(N3CCOCC3)c3oc4ncccc4c3n2)c1`, the IC50 with HEK293 [1] is 1.6 µM. Further, the “cytotoxicity IC50” value in the test on HEK293 [2] is 0.94 µM. In the test with HEK293 [3], this compound registered a maximal inhibition of 92.

Compound `CCOC(=O)C1(c2ccccc2)CCN(CCC(C#N)(c2ccccc2)c2ccccc2)CC1` came in with an IC50 in the test on HEK293 [1] of 6 µM. Besides, in the test with HEK293 [2], the “cytotoxicity IC50” value was found to be 9.2 µM. This compound came in with a maximal inhibition with HEK293 [3] of 105.

For `O=C1NC(=O)[C@@H](c2cn3c4c(cccc24)CCC3)[C@@H]1c1c[nH]c2ccccc12`, the IC50 in the test with HEK293 [1] is 18 µM. Also, in the test with HEK293 [2], the “cytotoxicity IC50” value came to 1.6 µM. For the same compound, in the test with HEK293 [3], the maximal inhibition worked out at 86.

`CC[C@@H](C(=O)[C@@H](C)[C@@H](O)[C@H](C)[C@@H]1O[C@@H]([C@@H](CC)C(=O)O)CC[C@@H]1C)[C@H]1O[C@]2(C=C[C@@H](O)[C@]3(CC[C@@](C)([C@H]4CC[C@](O)(CC)[C@H](C)O4)O3)O2)[C@H](C)C[C@@H]1C` registered an IC50 in the test on HEK293 [1] of 17 µM. The “cytotoxicity IC50” value in the test on HEK293 [2] came out at 27 µM. This compound yielded a maximal inhibition with HEK293 [3] of 106.

With `C1CCC(C(CC2CCCCN2)C2CCCCC2)CC1` (stereo not given), in the test with HEK293 [1], the IC50 came out at 45 µM. Also, the “cytotoxicity IC50” value with HEK293 [2] amounted to 50 µM. Besides, the maximal inhibition with HEK293 [3] is 98.

The compound `Cc1ccc(NC(=O)c2ccc(CN3CCN(C)CC3)cc2)cc1Nc1nccc(-c2cccnc2)n1` came in with an IC50 with HEK293 [1] of 60 µM. The “cytotoxicity IC50” value with HEK293 [2] came out at 41 µM. In the test with HEK293 [3], this compound gave a maximal inhibition of 64.

Turning to `CCCCCC(=O)O[C@]1(C(C)=O)CC[C@H]2[C@@H]3CCC4=CC(=O)CC[C@]4(C)[C@H]3CC[C@@]21C`, the IC50 in the test on HEK293 [1] came out at 50 µM. Besides, in the test on HEK293 [2], the “cytotoxicity IC50” value came out at 7.9 µM. The same compound gave a maximal inhibition in the test with HEK293 [3] of 99.

Compound `CCOC(=O)C1=C(C)NC2=C(C(=O)CC(C)(C)C2)C1c1ccc(-c2ccccc2)cc1` (stereo not given) came in with an IC50 in the test with HEK293 [1] of 17 µM. The “cytotoxicity IC50” value in the test with HEK293 [2] is greater than 100 µM. Besides, the maximal inhibition with HEK293 [3] was 89.

`Nc1cc(C(F)(F)F)c(-c2cc(N3CCOCC3)nc(N3CCOCC3)n2)cn1` returned an IC50 with HEK293 [1] of 4.2 µM. Moreover, the “cytotoxicity IC50” value in the test with HEK293 [2] was determined as 2.3 µM. Further, the maximal inhibition with HEK293 [3] was 74.

The compound `CCN(CC)CCNC(=O)c1ccc2nc(-c3ccccc3)c(-c3ccc(CN4CCC(n5c(=O)[nH]c6ccccc65)CC4)cc3)nc2c1` registered an IC50 in the test with HEK293 [1] of 60 µM. Further, the “cytotoxicity IC50” value in the test on HEK293 [2] is greater than 100 µM. The maximal inhibition in the test on HEK293 [3] came to 55.
